How the values were obtained:
[1] = target: PI3-kinase p110-delta/p85-alpha (Homo sapiens, UniProt O00329)
SU-DHL-6 [2] = test: Antiproliferative activity against human SU-DHL-6 cells assessed as reduction in cell viability measured after 72 hrs by MTT assay; assay type: functional
[3] = Elimination half life in Sprague-Dawley rat at 5 mg/kg, po by UHPLC-LC/MS analysis; assay type: ADME, organism-based; conditions: in vivo, read-out: beta t1/2 (converted)
SU-DHL-6 [4] = test: Inhibition of PI3K in human SU-DHL-6 cells assessed as reduction in AKT phosphorylation at Ser473 residues after 2 hrs by Western blot analysis; assay type: cell-based
[5] = AUC (0 to t) in Sprague-Dawley rat at 5 mg/kg, po by UHPLC-LC/MS analysis; assay type: ADME, organism-based; set-up: dose 5 mg/kg; conditions: in vivo
[6] = Clearance in Sprague-Dawley rat at 5 mg/kg, […] by UHPLC-LC/MS analysis; assay type: ADME, organism-based; conditions: in vivo
Homo sapiens [7] = species: Homo sapiens
[8] = Oral bioavailability in Sprague-Dawley rat at 5 mg/kg by UHPLC-LC/MS analysis; assay type: ADME, organism-based; conditions: in vivo
[9] = target: Phosphatidylinositol 4,5-bisphosphate 3-kinase catalytic subunit gamma isoform (Homo sapiens, UniProt P48736)
Phosphatidylinositol 4,5-bisphosphate 3-kinase catalytic subunit gamma isoform, sequence (P48736 whole entry, canonical isoform): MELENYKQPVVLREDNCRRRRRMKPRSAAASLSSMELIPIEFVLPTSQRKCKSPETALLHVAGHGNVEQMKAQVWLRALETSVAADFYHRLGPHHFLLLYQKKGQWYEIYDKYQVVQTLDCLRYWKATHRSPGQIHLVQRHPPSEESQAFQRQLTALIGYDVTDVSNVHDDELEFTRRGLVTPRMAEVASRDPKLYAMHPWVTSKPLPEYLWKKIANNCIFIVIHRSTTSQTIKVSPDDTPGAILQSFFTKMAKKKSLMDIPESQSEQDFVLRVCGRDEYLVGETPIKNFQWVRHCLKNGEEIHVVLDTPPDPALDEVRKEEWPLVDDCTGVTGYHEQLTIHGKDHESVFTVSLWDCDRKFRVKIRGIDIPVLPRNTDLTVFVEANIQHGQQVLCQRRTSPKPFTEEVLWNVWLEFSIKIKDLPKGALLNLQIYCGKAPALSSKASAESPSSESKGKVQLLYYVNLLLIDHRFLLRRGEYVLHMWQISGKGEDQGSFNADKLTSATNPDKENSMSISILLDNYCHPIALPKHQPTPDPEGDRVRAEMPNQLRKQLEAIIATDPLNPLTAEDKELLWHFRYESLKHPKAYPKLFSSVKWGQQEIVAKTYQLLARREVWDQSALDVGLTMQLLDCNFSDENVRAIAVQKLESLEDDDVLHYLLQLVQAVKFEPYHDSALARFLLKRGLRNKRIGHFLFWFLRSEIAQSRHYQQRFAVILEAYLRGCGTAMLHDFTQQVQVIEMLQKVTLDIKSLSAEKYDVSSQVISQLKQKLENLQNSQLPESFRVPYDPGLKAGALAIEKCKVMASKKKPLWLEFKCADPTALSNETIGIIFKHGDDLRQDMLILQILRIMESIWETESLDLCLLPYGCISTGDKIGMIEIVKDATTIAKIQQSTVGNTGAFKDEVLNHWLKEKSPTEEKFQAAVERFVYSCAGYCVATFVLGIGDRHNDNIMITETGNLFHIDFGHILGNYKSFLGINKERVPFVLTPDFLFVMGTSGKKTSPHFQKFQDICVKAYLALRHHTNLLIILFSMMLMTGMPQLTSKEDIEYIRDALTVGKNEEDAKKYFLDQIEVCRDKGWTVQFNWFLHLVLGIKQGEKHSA

Homo sapiens [10] = species: Homo sapiens; remark: listed apart in the source
Homo sapiens [11] = species: Homo sapiens; remark: listed apart in the source
[12] = AUC (0 to t) in Sprague-Dawley rat at 5 mg/kg, iv by UHPLC-LC/MS analysis; assay type: ADME, organism-based; set-up: dose 5 mg/kg; conditions: in vivo
[13] = target: PI3-kinase p110-alpha/p85-alpha (Homo sapiens, UniProt P42336)
SU-DHL-6 [14] = test: Inhibition of PI3K in human SU-DHL-6 cells assessed as reduction in S6K1 phosphorylation at Thr389 residues after 2 hrs by Western blot analysis; assay type: cell-based
[15] = Elimination half life in Sprague-Dawley rat at 5 mg/kg, iv by UHPLC-LC/MS analysis; assay type: ADME, organism-based; conditions: in vivo, read-out: beta t1/2 (converted)
[16] = target: Phosphatidylinositol 3-kinase regulatory subunit beta/Phosphatidylinositol 4,5-bisphosphate 3-kinase catalytic subunit beta isoform (Homo sapiens, UniProt P42338)
Phosphatidylinositol 3-kinase regulatory subunit beta/Phosphatidylinositol 4,5-bisphosphate 3-kinase catalytic subunit beta isoform, sequence (P42338 whole entry, canonical isoform): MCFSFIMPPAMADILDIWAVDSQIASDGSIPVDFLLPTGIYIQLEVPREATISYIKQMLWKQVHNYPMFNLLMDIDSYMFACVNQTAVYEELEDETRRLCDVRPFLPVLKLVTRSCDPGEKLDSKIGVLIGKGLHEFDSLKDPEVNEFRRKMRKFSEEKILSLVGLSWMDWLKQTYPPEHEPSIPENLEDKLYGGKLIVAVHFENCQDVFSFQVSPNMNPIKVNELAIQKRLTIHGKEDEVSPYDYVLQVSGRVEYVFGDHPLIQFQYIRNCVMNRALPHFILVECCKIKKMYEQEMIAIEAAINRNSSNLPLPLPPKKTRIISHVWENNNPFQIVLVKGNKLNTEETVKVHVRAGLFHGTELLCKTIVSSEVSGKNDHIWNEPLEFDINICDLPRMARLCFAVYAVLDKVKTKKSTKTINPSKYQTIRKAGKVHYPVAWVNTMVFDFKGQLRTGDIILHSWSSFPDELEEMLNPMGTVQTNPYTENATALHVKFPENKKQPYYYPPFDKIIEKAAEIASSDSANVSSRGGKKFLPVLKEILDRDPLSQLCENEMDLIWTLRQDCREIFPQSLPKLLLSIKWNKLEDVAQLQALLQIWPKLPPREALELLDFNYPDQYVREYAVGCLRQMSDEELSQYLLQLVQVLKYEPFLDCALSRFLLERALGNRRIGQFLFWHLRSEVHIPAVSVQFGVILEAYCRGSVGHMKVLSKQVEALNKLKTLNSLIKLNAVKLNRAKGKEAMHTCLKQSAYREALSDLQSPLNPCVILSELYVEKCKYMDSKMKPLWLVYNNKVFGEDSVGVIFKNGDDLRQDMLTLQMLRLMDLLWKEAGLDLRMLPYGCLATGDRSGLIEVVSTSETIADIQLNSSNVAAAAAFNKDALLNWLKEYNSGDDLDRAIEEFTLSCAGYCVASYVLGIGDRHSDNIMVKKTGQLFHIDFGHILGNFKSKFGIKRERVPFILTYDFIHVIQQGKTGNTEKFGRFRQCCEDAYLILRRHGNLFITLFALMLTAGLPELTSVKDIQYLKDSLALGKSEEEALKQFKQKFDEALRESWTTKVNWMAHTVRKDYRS
Phosphatidylinositol 3-kinase regulatory subunit beta/Phosphatidylinositol 4,5-bisphosphate 3-kinase catalytic subunit beta isoform, sequence (O00459 whole entry, further chain, canonical isoform): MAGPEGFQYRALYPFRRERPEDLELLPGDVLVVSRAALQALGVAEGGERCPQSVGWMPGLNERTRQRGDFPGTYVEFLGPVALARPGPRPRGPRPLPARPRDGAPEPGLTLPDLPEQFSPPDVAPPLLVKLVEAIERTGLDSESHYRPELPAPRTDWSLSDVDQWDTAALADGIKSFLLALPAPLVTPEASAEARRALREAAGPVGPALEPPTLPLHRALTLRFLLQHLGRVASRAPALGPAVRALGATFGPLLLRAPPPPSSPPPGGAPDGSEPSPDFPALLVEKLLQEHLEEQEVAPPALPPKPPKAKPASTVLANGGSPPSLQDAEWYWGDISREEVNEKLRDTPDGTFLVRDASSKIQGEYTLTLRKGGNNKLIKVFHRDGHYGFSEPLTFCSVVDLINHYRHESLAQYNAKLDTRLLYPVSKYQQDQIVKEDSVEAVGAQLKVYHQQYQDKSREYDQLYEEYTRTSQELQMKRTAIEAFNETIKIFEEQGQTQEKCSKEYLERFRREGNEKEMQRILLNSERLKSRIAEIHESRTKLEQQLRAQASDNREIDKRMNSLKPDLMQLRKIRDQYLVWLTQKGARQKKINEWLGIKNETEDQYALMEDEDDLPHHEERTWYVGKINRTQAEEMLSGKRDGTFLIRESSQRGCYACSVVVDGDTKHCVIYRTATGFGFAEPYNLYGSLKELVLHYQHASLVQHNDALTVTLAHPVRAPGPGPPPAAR

[17] = Volume of distribution at steady state in Sprague-Dawley rat at 5 mg/kg, iv or po by UHPLC-LC/MS analysis; assay type: ADME, organism-based; conditions: in vivo, read-out: Vdss

PI3-kinase p110-delta/p85-alpha, sequence (P27986 whole entry): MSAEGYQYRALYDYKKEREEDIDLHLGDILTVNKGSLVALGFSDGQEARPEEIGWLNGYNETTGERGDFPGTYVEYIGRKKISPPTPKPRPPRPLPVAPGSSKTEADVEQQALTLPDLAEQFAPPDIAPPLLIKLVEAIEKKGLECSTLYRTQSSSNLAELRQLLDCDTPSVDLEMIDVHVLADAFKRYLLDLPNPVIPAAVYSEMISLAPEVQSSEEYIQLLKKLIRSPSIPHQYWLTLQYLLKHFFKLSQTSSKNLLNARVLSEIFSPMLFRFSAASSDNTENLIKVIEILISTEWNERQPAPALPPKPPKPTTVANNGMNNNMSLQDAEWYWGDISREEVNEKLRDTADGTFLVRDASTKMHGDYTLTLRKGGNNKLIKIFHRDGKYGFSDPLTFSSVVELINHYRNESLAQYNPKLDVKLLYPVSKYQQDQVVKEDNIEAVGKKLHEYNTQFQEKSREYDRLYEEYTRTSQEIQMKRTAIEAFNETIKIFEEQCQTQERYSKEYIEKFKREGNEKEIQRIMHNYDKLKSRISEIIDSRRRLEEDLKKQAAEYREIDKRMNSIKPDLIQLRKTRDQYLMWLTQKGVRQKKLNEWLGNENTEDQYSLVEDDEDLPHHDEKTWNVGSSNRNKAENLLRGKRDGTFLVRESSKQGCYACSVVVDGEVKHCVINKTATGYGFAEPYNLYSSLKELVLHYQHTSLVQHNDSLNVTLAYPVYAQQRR
PI3-kinase p110-delta/p85-alpha, sequence (O00329 whole entry): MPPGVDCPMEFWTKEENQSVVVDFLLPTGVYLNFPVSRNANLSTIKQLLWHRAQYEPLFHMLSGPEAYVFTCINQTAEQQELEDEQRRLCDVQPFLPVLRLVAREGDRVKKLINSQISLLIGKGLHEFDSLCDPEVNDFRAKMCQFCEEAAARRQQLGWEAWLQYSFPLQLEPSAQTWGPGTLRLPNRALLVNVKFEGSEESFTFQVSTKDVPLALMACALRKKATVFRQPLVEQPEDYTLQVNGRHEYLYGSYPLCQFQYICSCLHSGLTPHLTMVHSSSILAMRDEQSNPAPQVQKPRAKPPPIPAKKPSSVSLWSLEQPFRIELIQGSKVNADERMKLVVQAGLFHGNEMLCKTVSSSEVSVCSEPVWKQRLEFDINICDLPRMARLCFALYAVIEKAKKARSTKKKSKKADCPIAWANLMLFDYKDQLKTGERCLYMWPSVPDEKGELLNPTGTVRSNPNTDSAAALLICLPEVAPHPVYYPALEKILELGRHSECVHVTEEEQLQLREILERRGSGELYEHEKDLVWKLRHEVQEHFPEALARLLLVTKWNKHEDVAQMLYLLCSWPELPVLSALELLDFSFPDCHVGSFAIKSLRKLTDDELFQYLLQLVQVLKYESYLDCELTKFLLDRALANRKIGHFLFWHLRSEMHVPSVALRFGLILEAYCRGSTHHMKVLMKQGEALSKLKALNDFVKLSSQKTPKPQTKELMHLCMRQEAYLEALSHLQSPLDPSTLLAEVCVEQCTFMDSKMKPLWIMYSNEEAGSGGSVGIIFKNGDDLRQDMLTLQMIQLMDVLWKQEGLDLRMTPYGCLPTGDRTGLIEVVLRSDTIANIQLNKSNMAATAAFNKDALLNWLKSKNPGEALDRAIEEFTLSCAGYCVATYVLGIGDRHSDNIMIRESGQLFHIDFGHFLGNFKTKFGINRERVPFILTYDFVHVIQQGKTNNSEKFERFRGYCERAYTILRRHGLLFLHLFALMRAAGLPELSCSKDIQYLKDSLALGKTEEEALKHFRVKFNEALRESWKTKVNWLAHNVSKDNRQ

Compound | IC50 [1] [nM] | GI50 (SU-DHL-6 [2]) [nM] | further results
O=c1c2cc(F)ccc2nc([C@@H]2CC3(CC3)CN2c2ncnc3[nH]cnc23)n1-c1ccccc1 | 48 | 937 | –
N#Cc1c(N)ncnc1N1CC2(CC2)C[C@H]1c1nc2cccc(Cl)c2c(=O)n1-c1ccccc1 | 3.7 | 3420 | –
CC[C@H](Nc1ncnc2[nH]cnc12)c1nc2cccc(F)c2c(=O)n1-c1ccccc1 [IDELALISIB] | – | 34 | –
N#Cc1c(N)nc(N)nc1N1CC2(CC2)C[C@H]1c1nc2cccc(F)c2c(=O)n1-c1ccccc1 | 5.4 | 53 | –
Cc1nc(N)nc(N2CC3(CC3)C[C@H]2c2nc3cccc(F)c3c(=O)n2-c2ccccc2)c1C#N | 9.4 | 1040 | –
N#Cc1c(N)nc(N)nc1N1CC2(CC2)C[C@H]1c1nc2cccc(Cl)c2c(=O)n1-c1ccccc1 | 1 | 33 | half-life [3]: 14.3 h; inhibition (SU-DHL-6 [4]): Dose-dependent effect; AUC(0-t) [5]: 4880 ng·h/mL; CL/F [6]: 15 mL/min/kg; Ratio IC50 (Homo sapiens [7]): 221; bioavailability [8]: 87.5%; IC50 [9]: 4.3 nM; Ratio IC50 (Homo sapiens [10]): 174; Ratio IC50 (Homo sapiens [11]): 4; AUC(0-t) [12]: 5580 ng·h/mL; IC50 [13]: 221 nM; inhibition (SU-DHL-6 [14]): Dose-dependent effect; half-life [15]: 3 h; IC50 [16]: 174 nM; Vd [17]: 3.9 L/kg
O=c1c2c(F)cccc2nc([C@@H]2CC3(CC3)CN2c2ncnc3[nH]cnc23)n1C1CCCCC1 | 444 | – | –
O=c1c2c(F)cccc2nc([C@@H]2CC3(CC3)CN2c2ncnc3[nH]cnc23)n1C1CCCC1 | 396 | – | –
Cc1nc(N)nc(N2CC3(CC3)C[C@H]2c2nc3cccc(Cl)c3c(=O)n2-c2ccccc2)c1C#N | 9.6 | 716 | –
Cc1cccc2nc([C@@H]3CC4(CC4)CN3c3ncnc4[nH]cnc34)n(-c3ccccc3)c(=O)c12 | 16 | 107 | –
O=c1c2c(Cl)cccc2nc([C@@H]2CC3(CC3)CN2c2nc(Cl)nc3[nH]cnc23)n1-c1ccccc1 | 406 | – | –
N#Cc1c(N)ncnc1N1CC2(CC2)C[C@H]1c1nc2ccc(F)cc2c(=O)n1-c1ccccc1 | 9.6 | 945 | –
O=c1c2c(F)cccc2nc([C@@H]2CC3(CC3)CN2c2ncnc3[nH]cnc23)n1-c1ccccc1 | 43 | 813 | –
O=c1c2c(Cl)cccc2nc([C@@H]2CC3(CC3)CN2c2nc(F)nc3[nH]cnc23)n1-c1ccccc1 | 38 | 2810 | –
N#Cc1c(N)ncnc1N1CC2(CC2)C[C@H]1c1nc2cccc(F)c2c(=O)n1-c1ccccc1 | 15 | 867 | –
O=c1c2c(F)cccc2nc([C@@H]2CC3(CC3)CN2c2ncnc3[nH]cnc23)n1Cc1ccccc1 | 813 | – | –
O=c1c2c(Cl)cccc2nc([C@@H]2CC3(CC3)CN2c2ncnc3[nH]cnc23)n1-c1ccccc1 | 13 | 601 | Ratio IC50 (Homo sapiens [7]): > 385; IC50 [9]: 113 nM; Ratio IC50 (Homo sapiens [10]): 203; Ratio IC50 (Homo sapiens [11]): 9; IC50 [13]: > 5000 nM; IC50 [16]: 2640 nM
